Source: ChEMBL document CHEMBL5260856, “Design, synthesis and biological evaluation of pyrazolo[3,4-b]pyridine derivatives as TRK inhibitors” (RSC Med Chem, 2023)
One block for each compound: values may come before it.

Legend:
[1] = molecular target: Serine/threonine-protein kinase PAK 4 (Homo sapiens, UniProt O96013); experiment: Inhibition of PAK4 (unknown origin)
[2] = molecular target: T1, Serine/threonine-protein kinase PLK4 (Homo sapiens, UniProt O00444); experiment: Inhibition of PLK4 (unknown origin)
T1 sequence (O00444 whole entry): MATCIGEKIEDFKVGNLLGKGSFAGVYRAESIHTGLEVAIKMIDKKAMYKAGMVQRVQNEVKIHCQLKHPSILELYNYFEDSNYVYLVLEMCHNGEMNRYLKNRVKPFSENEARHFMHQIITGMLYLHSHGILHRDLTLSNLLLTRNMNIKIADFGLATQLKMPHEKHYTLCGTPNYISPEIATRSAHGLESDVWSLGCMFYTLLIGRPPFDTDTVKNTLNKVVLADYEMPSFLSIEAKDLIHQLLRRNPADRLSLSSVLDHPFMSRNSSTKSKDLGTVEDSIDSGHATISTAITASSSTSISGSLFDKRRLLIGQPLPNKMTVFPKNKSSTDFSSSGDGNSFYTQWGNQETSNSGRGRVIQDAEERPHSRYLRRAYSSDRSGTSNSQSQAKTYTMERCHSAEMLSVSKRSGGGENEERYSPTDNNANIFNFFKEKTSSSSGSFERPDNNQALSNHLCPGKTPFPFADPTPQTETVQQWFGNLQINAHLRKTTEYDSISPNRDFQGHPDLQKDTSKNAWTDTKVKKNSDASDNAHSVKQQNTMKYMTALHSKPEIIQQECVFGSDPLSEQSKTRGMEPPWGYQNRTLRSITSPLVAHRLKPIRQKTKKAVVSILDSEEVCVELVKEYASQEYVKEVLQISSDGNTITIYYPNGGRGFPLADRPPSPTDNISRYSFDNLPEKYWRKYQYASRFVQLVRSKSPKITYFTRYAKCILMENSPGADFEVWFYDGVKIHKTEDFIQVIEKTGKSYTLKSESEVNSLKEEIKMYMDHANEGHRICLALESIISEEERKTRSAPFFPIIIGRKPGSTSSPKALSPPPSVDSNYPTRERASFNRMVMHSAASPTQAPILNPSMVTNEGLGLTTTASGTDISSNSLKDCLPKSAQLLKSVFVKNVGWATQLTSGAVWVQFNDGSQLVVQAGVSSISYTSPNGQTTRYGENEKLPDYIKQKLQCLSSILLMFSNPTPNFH

Focal adhesion kinase 1 = Focal adhesion kinase 1 (Homo sapiens, UniProt Q05397); experiment: Inhibition of FAK (unknown origin)
Sequence of Focal adhesion kinase 1 (Q05397 whole entry): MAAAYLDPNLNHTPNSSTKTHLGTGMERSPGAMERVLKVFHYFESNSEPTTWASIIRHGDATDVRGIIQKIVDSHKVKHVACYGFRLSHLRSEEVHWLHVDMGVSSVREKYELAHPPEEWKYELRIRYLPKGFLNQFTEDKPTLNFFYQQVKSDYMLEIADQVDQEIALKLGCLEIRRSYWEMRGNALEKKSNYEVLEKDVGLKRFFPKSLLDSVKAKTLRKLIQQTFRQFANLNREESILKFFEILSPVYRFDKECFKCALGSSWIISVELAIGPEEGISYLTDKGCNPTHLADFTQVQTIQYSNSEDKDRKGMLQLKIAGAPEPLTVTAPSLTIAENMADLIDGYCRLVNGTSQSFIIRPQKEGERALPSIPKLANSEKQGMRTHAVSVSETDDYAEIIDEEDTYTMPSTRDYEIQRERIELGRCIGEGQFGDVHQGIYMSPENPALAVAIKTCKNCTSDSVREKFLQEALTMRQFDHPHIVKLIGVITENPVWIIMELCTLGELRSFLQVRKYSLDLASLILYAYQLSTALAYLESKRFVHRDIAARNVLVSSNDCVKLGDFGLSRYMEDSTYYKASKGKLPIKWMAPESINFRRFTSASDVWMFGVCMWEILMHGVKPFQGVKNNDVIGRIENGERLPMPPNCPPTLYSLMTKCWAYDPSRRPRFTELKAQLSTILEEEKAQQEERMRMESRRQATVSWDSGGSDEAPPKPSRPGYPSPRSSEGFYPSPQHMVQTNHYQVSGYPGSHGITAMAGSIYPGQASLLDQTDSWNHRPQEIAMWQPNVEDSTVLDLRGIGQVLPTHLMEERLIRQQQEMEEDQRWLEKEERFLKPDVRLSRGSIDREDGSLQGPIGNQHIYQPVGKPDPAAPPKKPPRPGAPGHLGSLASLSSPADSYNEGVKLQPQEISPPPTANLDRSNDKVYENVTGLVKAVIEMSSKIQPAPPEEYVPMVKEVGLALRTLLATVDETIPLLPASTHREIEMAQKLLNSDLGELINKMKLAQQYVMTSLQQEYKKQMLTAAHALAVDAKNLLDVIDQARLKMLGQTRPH

[3] = molecular target: High affinity nerve growth factor receptor (Homo sapiens, UniProt P04629); experiment: Inhibition of TRKA (unknown origin) using TK as substrate in presence of ATP incubated for 30 mins by HTRF KinEASE assay
Sequence of High affinity nerve growth factor receptor (P04629 whole entry): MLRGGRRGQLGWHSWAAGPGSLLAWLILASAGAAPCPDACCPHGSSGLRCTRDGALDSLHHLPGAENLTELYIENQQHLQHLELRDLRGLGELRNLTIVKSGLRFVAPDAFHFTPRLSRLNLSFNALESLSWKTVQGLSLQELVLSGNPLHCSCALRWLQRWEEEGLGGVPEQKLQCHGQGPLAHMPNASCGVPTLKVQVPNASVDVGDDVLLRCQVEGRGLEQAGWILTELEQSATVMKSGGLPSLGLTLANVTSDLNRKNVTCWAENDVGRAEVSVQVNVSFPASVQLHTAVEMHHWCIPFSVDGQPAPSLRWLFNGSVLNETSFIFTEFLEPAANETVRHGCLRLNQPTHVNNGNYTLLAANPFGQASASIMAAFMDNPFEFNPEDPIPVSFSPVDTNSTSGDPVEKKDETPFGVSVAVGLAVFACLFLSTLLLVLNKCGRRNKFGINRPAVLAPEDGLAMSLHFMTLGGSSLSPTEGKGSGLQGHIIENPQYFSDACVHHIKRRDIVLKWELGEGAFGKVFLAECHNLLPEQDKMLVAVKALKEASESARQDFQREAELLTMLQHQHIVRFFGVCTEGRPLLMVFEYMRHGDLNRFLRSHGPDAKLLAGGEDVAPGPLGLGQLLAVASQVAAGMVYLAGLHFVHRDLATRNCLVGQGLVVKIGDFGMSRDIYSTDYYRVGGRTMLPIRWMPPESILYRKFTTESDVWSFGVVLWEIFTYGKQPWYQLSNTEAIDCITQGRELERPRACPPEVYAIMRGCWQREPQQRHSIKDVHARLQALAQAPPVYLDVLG

MCF7 = experiment: Antiproliferative activity against human MCF7 cells assessed as cell growth inhibition incubated for 72 hrs by CCK-8 assay; assay type: functional, cell-based; conditions: MCF7, 72 h
KM12 = experiment: Antiproliferative activity against human KM12 cells assessed as cell growth inhibition incubated for 72 hrs by CCK-8 assay; assay type: functional, cell-based; conditions: KM12, 72 h
[4] = Inhibition of tyrosine kinase (unknown origin); set-up: species or system Homo sapiens
[5] = Stability in human plasma assessed as parent compound remaining at 100 uM and measured after 30 mins by LC-MS/MS analysis; assay type: ADME, cell-free; conditions: read-out: Stability
CYP3A4 = CYP3A4 (Homo sapiens, UniProt P08684); experiment: Inhibition of CYP3A4 in human liver microsomes using midazolam as substrate at 10 uM preincubated for 10 mins followed by NADPH addition and measured after 15 mins by LC-MS/MS analysis; assay type: ADME, Microsome; conditions: probe midazolam, time 25 min
Sequence of CYP3A4 (P08684 whole entry): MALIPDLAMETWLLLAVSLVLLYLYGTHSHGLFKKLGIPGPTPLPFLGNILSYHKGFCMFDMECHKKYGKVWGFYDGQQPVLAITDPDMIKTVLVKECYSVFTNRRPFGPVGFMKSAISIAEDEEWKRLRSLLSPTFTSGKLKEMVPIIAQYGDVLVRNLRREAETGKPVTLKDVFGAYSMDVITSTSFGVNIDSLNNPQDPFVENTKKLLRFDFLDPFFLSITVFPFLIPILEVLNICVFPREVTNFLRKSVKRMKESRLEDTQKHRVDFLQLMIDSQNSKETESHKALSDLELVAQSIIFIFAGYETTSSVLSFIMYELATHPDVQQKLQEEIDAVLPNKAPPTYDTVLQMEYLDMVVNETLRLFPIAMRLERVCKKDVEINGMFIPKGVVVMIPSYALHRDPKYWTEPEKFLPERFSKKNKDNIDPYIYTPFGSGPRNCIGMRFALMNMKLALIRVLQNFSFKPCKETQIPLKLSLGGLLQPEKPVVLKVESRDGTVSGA

[6] = Stability in human plasma assessed as parent compound remaining at 100 uM and measured after 0 mins by LC-MS/MS analysis; assay type: ADME, cell-free; conditions: read-out: Stability
[7] = Stability in human plasma assessed as parent compound remaining at 100 uM and measured after 120 mins by LC-MS/MS analysis; assay type: ADME, cell-free; conditions: read-out: Stability
[8] = Stability in human plasma assessed as parent compound remaining at 100 uM and measured after 60 mins by LC-MS/MS analysis; assay type: ADME, cell-free; conditions: read-out: Stability
CYP2D6 = CYP2D6 (Homo sapiens, UniProt P10635); experiment: Inhibition of CYP2D6 in human liver microsomes using dextromethorphan as substrate at 10 uM preincubated for 10 mins followed by NADPH addition and measured after 15 mins by LC-MS/MS analysis; assay type: ADME, Microsome; conditions: probe dextromethorphan, time 25 min
Sequence of CYP2D6 (P10635 whole entry): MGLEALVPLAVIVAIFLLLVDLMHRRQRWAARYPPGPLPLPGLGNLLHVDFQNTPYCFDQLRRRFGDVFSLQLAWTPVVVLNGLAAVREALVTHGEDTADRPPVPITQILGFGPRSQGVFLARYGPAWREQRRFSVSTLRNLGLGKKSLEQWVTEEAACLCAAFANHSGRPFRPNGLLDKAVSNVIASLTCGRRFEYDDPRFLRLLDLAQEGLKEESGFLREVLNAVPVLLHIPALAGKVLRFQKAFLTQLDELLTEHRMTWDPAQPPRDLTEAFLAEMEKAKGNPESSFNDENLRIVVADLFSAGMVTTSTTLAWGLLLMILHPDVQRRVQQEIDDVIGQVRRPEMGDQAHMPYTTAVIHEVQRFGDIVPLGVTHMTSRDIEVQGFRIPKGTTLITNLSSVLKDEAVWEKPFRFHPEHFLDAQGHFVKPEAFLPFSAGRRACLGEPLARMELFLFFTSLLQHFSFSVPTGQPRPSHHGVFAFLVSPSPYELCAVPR

CYP2C19 = CYP2C19 (Homo sapiens, UniProt P33261); experiment: Inhibition of CYP2C19 in human liver microsomes using S-mephenytoin as substrate at 10 uM preincubated for 10 mins followed by NADPH addition and measured after 15 mins by LC-MS/MS analysis; assay type: ADME, Microsome; conditions: probe S-mephenytoin, time 25 min
Sequence of CYP2C19 (P33261 whole entry): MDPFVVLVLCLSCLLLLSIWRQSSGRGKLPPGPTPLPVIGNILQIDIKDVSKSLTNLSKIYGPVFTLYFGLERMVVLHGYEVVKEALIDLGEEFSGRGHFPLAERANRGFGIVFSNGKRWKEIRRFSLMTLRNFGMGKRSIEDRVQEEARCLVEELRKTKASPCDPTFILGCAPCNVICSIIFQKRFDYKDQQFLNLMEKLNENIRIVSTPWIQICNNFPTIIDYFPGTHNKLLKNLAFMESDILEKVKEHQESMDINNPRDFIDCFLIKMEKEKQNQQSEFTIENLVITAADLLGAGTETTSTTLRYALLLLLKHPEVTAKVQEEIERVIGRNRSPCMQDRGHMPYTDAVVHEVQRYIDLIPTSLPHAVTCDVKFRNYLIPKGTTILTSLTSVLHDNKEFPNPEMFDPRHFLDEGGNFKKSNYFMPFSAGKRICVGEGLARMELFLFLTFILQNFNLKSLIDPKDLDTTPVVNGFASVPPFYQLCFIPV

[9] = Stability in human plasma assessed as parent compound remaining at 100 uM and measured after 10 mins by LC-MS/MS analysis; assay type: ADME, cell-free; conditions: read-out: Stability
CYP2C9 = CYP2C9 (Homo sapiens, UniProt P11712); experiment: Inhibition of CYP2C9 in human liver microsomes using diclofenac as substrate at 10 uM preincubated for 10 mins followed by NADPH addition and measured after 15 mins by LC-MS/MS analysis; assay type: ADME, Microsome; conditions: probe diclofenac, time 25 min
Sequence of CYP2C9 (P11712 whole entry): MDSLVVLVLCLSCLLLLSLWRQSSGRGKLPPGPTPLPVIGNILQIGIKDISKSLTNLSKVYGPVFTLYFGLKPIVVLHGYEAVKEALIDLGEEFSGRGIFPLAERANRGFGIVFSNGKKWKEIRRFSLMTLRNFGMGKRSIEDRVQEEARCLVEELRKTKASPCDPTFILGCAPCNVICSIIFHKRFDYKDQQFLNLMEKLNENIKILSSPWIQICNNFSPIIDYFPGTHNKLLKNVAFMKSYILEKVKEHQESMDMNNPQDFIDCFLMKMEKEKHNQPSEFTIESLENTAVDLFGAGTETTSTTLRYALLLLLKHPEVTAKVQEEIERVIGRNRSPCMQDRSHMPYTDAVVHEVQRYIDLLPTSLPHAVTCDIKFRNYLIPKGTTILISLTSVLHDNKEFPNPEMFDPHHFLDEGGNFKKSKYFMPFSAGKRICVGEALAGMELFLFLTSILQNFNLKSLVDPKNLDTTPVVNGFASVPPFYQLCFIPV

[10] = Stability in human plasma assessed as half life at 100 uM and measured after 120 mins by LC-MS/MS analysis; assay type: ADME, cell-free
CYP1A2 = molecular target: T2, CYP1A2 (Homo sapiens, UniProt P05177); experiment: Inhibition of CYP1A2 in human liver microsomes using phenacetin as substrate at 10 uM preincubated for 10 mins followed by NADPH addition and measured after 15 mins by LC-MS/MS analysis; assay type: ADME, Microsome; conditions: probe phenacetin, time 25 min
T2 sequence (P05177 whole entry): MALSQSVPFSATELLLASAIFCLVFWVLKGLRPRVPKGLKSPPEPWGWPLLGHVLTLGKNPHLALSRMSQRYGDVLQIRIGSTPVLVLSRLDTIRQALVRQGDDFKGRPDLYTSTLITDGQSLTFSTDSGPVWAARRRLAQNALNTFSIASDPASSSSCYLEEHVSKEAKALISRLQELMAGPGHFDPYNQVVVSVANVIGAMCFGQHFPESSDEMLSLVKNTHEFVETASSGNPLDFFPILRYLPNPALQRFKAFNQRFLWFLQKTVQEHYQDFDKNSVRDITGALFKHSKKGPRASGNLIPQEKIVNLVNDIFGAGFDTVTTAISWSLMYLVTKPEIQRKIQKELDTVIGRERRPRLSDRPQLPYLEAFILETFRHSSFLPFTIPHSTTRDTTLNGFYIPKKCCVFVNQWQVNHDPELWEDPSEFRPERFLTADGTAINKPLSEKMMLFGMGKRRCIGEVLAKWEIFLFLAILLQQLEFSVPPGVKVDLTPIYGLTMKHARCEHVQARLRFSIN

Sequence of Serine/threonine-protein kinase PAK 4 (O96013 whole entry): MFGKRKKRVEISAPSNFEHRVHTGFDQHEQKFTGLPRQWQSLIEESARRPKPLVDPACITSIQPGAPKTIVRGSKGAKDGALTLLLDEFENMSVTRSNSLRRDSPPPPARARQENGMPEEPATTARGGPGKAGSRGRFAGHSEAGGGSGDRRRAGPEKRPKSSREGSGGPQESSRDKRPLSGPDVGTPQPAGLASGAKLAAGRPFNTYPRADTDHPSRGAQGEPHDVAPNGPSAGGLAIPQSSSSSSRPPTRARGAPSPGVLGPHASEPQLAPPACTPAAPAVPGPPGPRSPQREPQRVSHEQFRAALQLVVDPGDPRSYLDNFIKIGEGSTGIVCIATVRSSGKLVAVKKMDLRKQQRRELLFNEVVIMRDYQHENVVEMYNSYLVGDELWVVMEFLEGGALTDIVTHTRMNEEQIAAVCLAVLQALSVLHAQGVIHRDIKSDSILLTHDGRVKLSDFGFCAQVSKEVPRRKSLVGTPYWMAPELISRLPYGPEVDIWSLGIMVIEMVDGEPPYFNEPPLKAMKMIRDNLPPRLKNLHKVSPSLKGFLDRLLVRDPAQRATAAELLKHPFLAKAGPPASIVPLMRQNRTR

SMILES: O=C(c1ccc(Nc2n[nH]c3ncc(Cc4cc(F)ccc4F)cc23)cc1)N1CCCC(O)C1 (configuration not stated)
IC50 [3]: 156 nM

SMILES: O=C(c1ccc(Nc2n[nH]c3ncc(Cc4cc(F)ccc4F)cc23)cc1)N1CCOCC1
IC50 [3]: 980 nM

SMILES: O=C(c1cccc(-c2n[nH]c3ncc(Cc4cc(F)ccc4F)cc23)c1)N1CCCC(O)C1 (configuration not stated)
remaining at 0.5 h, 100 µM [5]: 88% | inhibition at 0.25 h, 10 µM (CYP3A4): 0% | remaining at 0 h, 100 µM [6]: 100% | remaining at 2 h, 100 µM [7]: 89.1% | remaining at 1 h, 100 µM [8]: 93.6% | inhibition at 0.25 h, 10 µM (CYP2D6): 25.8% | IC50 [1]: > 100000 nM | inhibition at 0.25 h, 10 µM (CYP2C19): 48.6% | remaining at 10 min, 100 µM [9]: 104% | IC50 [2]: 1650 nM | IC50 (Focal adhesion kinase 1): > 100000 nM | inhibition at 0.25 h, 10 µM (CYP2C9): 66.6% | half-life at 100 µM [10]: > 4.82 h | inhibition at 0.25 h, 10 µM (CYP1A2): 16.6%

SMILES: O=C(c1cccc(Nc2n[nH]c3ncc(Cc4cc(F)cc(F)c4)cc23)c1)N1CCOCC1
IC50 [3]: 700 nM

SMILES: O=C(c1cccc(Nc2n[nH]c3ncc(Cc4ccc(F)c(F)c4)cc23)c1)N1CCOCC1
IC50 [3]: > 100000 nM

SMILES: O=C(c1cccc(Nc2n[nH]c3ncc(Cc4cccc(F)c4F)cc23)c1)N1CCOCC1
IC50 [3]: 1970 nM

SMILES: O=C(c1cccc(Nc2n[nH]c3ncc(Cc4cccc(C(F)(F)F)c4)cc23)c1)N1CCOCC1
IC50 [3]: 16700 nM

SMILES: O=C(c1cccc(Nc2n[nH]c3ncc(Cc4cc(F)c(F)c(F)c4)cc23)c1)N1CCOCC1
IC50 [3]: 660 nM

SMILES: NC1CCN(C(=O)c2cccc(Nc3n[nH]c4ncc(Cc5cc(F)ccc5F)cc34)c2)CC1
IC50 [3]: 437 nM

SMILES: O=C(c1ccc(Nc2n[nH]c3ncc(Cc4cc(F)ccc4F)cc23)cc1)N1CCNCC1
IC50 [3]: 409 nM

SMILES: O=C(c1cccc(-c2n[nH]c3ncc(Cc4cc(F)ccc4F)cc23)c1)N1CCC[C@H](O)C1
IC50 [1]: > 100000 nM | IC50 [2]: 1320 nM | IC50 (Focal adhesion kinase 1): > 100000 nM

Now from value to compound, other results behind:

IC50 [1]: > 100000 nM | IC50 [2]: 690 nM | IC50 (Focal adhesion kinase 1): > 100000 nM
SMILES: O=C(c1cccc(-c2n[nH]c3ncc(Cc4cc(F)ccc4F)cc23)c1)N1CCC[C@@H](O)C1

IC50 (MCF7): > 40000 nM | IC50 [4]: < 20 nM
SMILES: O=C(Nc1cnn2ccc(N3CCC[C@@H]3c3cc(F)ccc3F)nc12)N1CC[C@H](O)C1 [LAROTRECTINIB]
IC50 (KM12): 12 nM

IC50 [3]: 2780 nM
SMILES: O=C(c1cccc(Nc2n[nH]c3ncc(Cc4ccc(F)cc4)cc23)c1)N1CCOCC1

IC50 [3]: 254 nM
SMILES: O=C(c1cccc(-c2n[nH]c3ncc(Cc4cc(F)ccc4F)cc23)c1)N1CCC(O)CC1

IC50 [3]: 389 nM
SMILES: CN1CCN(C(=O)c2ccc(Nc3n[nH]c4ncc(Cc5cc(F)ccc5F)cc34)cc2)CC1

IC50 [3]: 205 nM
SMILES: O=C(c1cccc(Nc2n[nH]c3ncc(Cc4cc(F)ccc4F)cc23)c1)N1CCCC(O)C1 (configuration not stated)

IC50 [3]: 838 nM
SMILES: O=C(c1cccc(Nc2n[nH]c3ncc(Cc4c(F)cccc4F)cc23)c1)N1CCOCC1
